The subject of assay [1] is HCT-116 cells. Put plainly: Cell cycle assay (PI flow cytometry), HCT-116. Type of assay: cell-based, human. Conditions: 30 µg/mL, 48 h, mean of n = 2 (Figure 1E); untreated control 47.37 ± 1.68%. As for the experimental part:
Cell proliferation depends on orderly progression through the phases of the cell cycle (G1−S−G2−M). Cytotoxic agents can impair the integrity of DNA, leading to checkpoint arrest at G1/S or G2/M, which subsequently blocks proliferation. To evaluate the impact of compound 3d on cell cycle distribution, colon carcinoma cells were treated with 30 µg/mL of 3d for 48 h, followed by DNA content analysis using flow cytometry. […] In contrast, in HCT-116 cells, 3d caused an accumulation in the G1 phase, reaching 60.17 ± 1.44% versus 47.37 ± 1.68% in untreated cells (Figure 1E). […]
(§1) medium served used as negative and positive controls, respectively. Percentages of viable cells […]
(§2) wells (final concentration of 100 μg/mL), compared to the negative control, and expressed as mean value (%) ± SD from two replicates. Graphing dose-response curves representing the compound […]
(§3) (HUVECs) at final concentration of 100 μg/mL . HUVECs were grown in Dulbecco’s Modified Eagle’s Medium supplemented with 10% FBS, 2 mM glutamine (Sigma Aldrich), 100 units/mL penicillin and […] streptomycin (Life Technologies; Paisley, UK).
(§4) S3.2.5. Cell cycle assay.
(§5) HCT-116 and LoVo cultures upon treatment with compound 3d. HCT-116 and LoVo carcinoma […]
(§6) μg/mL for 48 h. […] Then, cells […]
(§7) of stained cancerous cells were determined. […]
(§8) carcinoma cells treated with compound 3d was assessed using the TMRE Mitochondrial Membrane
For orientation: In flow cytometry, cells or beads pass a laser one at a time.

A further assay has as its system LoVo cells. Briefly: Intracellular ROS level (human ROS ELISA kit), LoVo. The format is cell-based. The conditions noted are these: 30 µg/mL, 48 h. As for the experimental part:
(§9) To determine whether compound 3d induces oxidative stress, intracellular ROS levels were quantified after treatment (30 µg/mL, 48 h) using a human ROS ELISA kit.
(§10) A Human ROS ELISA Kit was used to measure the intracellular accumulation of ROS in the 3d-treated LoVo and HCT-116 cells. […]
as §1, §2, §3, §4, §5, §6
(§11) were fixed by mixing […] of 90% cold ethanol and stained with propidium iodide (PI) for 1 h at 37 °C. RNase A (10 mg/mL) was added in order to […] the ability of PI to bind only to DNA […]
(§12) S3.2.6. Annexin-V-FITC assay. […]
(§13) treatment with compound 3d. […]
as §7, §8
A general note: In an ELISA, binding on a coated surface is turned into a signal by an enzyme label.

Assay [2] has as its system HCT-116 cells. Briefly: Intracellular ROS level (human ROS ELISA kit), HCT-116. Type of assay: cell-based. Conditions: 30 µg/mL, 48 h. The protocol: as §9, §10, §1, §2, §3, §4, §5, §6, §11, §12, §13, §7, §8
The test system of assay [3] is Bax, Bcl-2 and Casp-3 genes expression in LoVo cells. Put plainly: qRT-PCR of Bax, Bcl-2 and Casp-3 gene expression, LoVo. The format is cell-based, human. Conditions: 30 µg/mL, 48 h. The protocol: To investigate molecular events downstream of ROS generation, we evaluated mRNA expression levels of key regulators of mitochondrial apoptosis—Bax and Bcl-2—using qRT-PCR. […] As a result, the Bax/Bcl-2 ratios were calculated to be 12.63 in LoVo cells and 8.71 in HCT-116 cells, reflecting a pronounced pro-apoptotic shift. This alteration in the Bax/Bcl-2 ratio strongly supports the activation of the mitochondrial apoptotic pathway.
To confirm activation of the execution phase of apoptosis, Casp-3 mRNA levels were evaluated by qRT-PCR.
The expression levels of these genes were determined using a quantitative real-time PCR technique. […]
S3.2.9. Quantification of the Expression Levels of Bax, Bcl-2 and Caspase-3 Genes
Human colon cancer cell lines (HCT-116 and LoVo) were cultured for 24 h in a 25 mL flask at
a density of 1 * 10^6 cells/flask as described in section S3.2.4. Cells were treated with 30 µg/mL
of compound 3d in 2 mL of fresh medium containing 1% FBS, or with 0.25 % DMSO as a
negative control, for 48 h. Afterwards, cells were washed with ice-cold phosphate-buffered
saline (PBS) and adherent cells were detached using trypsin solution.
Table S7 lists primers amplifying 100-200 bp of Bax, Bcl-2 and Caspase-3 genes. These primers
were designed using primer blast software (https://www.ncbi.nlm.nih.gov/tools/primer-
Table S7. Primer sequences for Bax, Bcl-2, Caspase-3, and GAPDH (control)
Gene Primer sequence (5’ to 3’)
Bcl-2 F 5’-[…] -3’,
Caspase 3 F 5’- […]-3’,
GAPDH F 5’- […]-3’
• Reverse-Transcription PCR (RT-PCR)
The total RNA was extracted from untreated and treated cells using the RNeasy Mini Kit
(Qiagen, DE). A Nanodrop 8000 spectrophotometer (Thermo Fisher Scientific, USA) was
used to check the RNA purity and quality. The Hyperscript Kit (GeneAll, KR) and random
hexamers (GeneAll, KR) were used as described in the manufacturer’s protocol to reverse-
transcript 1µg of RNA from each sample into cDNA.
• Quantitative real-time PCR
The mRNA expression of Bax, Bcl-2, and Caspase-3 were measured using QuantStudio
7Flex Detection System (Applied Biosystems, USA). The iScript One-Step RT-PCR Kit with
SYBR Green (Cat no: 170-8892; Bio-Rad, CA, USA) was used to carry out the reactions for
the synthesis of cDNA. Each cDNA sample (5 µl) was added in a 20 µL PCR mixture

Where [4] appears, read: relative to untreated controls, normalized to GAPDH.

Several values for one entry are separate records, joined by “and”; a condition that tells them apart may be missing. Identical values can stand only once.

Take `COc1cc(/C=N/c2ncnc3sc4c(c23)CCCC4)cc(OC)c1OC` [Compound 3d, (E)-N-(5,6,7,8-Tetrahydrobenzo[4,5]thieno[2,3-d]pyrimidin-4-yl)-1-(3,4,5-trimethoxyphenyl)methanimine]: the “% of Cell population, HCT-116: %G1” value in the assay with HCT-116 cells [1] is on record as 60.17 ± 1.44%. In the assay on LoVo cells, the “ROS, Fold of control, LoVo” value stood at 2.6. The “[ROS] pg/mL ± SD, LoVo” value with LoVo cells (control 168.6 ± 6.5, two independent experiments) was 434.5 ± 20.3 pg/mL and 434.5 pg/mL. The “ROS, Fold of control, HCT-116” value in the assay with HCT-116 cells [2] is 2.0. The “[ROS] pg/mL ± SD, HCT-116” value in the assay on HCT-116 cells [2] (control 143.5 ± 6.8, two independent experiments) is 290.1 ± 12.7 pg/mL and 290.1 pg/mL. Further, the “Bax/Bcl-2 ratio, LoVo cells” value in assay [3] is 12.63. Besides, in assay [3] (setting [4]), the “Bax mRNA expression, fold of control (LoVo)” value was 3.03 ± 0.41 fold; the “Bcl-2 mRNA expression, fold of control (LoVo)” value is given as 0.24 ± 0.03 fold; the “Casp-3 mRNA expression, fold of control (LoVo)” value is 5.35 ± 0.33 fold.

The values above are taken from PMC12196476, “New Nitrogen-, Oxygen-, and Sulfur-Containing Heterocyclic Compounds as Anti-Colon Cancer Agents: Synthesis, Multitargeted Evaluations, Molecular Docking Simulations and ADMET Predictions” (Pharmaceuticals, 2025).
